Reference: PubChem BioAssay (NCI)
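Five compound concentrations were applied to cells in 96-well plates for 48 hours; endpoints were derived by simple linear interpolation of the resulting dose-response curve. Abbreviation: GI50, concentration required for 50% inhibition of growth. The concentration for full growth arrest is given as TGI.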

Experiments:
Test in all cases: inhibition of tumour cell growth, NCI panel, 48 h
MALME-3M melanoma = system: MALME-3M melanoma
SR leukemia = system: SR leukemia
MCF7 breast = system: MCF7 breast
BT-549 breast = system: BT-549 breast
786-0 renal = system: 786-0 renal
A498 renal = system: A498 renal
SK-OV-3 ovarian = system: SK-OV-3 ovarian
SF-295 CNS = system: SF-295 CNS
HCT-15 colon = system: HCT-15 colon
UO-31 renal = system: UO-31 renal

SMILES	TGI (MALME-3M melanoma)	TGI (SR leukemia)	TGI (MCF7 breast)	TGI (BT-549 breast)	TGI (786-0 renal)	TGI (A498 renal)	TGI (SK-OV-3 ovarian)	TGI (SF-295 CNS)	TGI (HCT-15 colon)	TGI (UO-31 renal)	GI50 (MALME-3M melanoma)	GI50 (SR leukemia)	GI50 (MCF7 breast)	GI50 (BT-549 breast)	GI50 (786-0 renal)	GI50 (A498 renal)	GI50 (SK-OV-3 ovarian)	GI50 (SF-295 CNS)	GI50 (HCT-15 colon)	GI50 (UO-31 renal)
O=C1C(=C(C(F)(F)Cl)C(F)(F)Cl)C2CCC1C2 (stereo not given)	3.2 µM	> 3.34 µM	> 6.52 µM	4 µM	3.64 µM	> 10 µM	> 10 µM	> 10 µM	3.97 µM	> 6.47 µM	–	–	–	–	–	–	–	–	–	–
CC(=O)O[C@H]([C@H](OC(C)=O)[C@H](C)OC(C)=O)[C@@H](/C=C/[C@@H]1CC=CC(=O)O1)OC(C)=O	> 100 µM	> 100 µM	> 100 µM	51.3 µM	> 100 µM	> 100 µM	> 100 µM	45.9 µM	> 100 µM	39.9 µM	> 100 µM	77.5 µM	33.5 µM	22.3 µM	90.1 µM	50.2 µM	> 100 µM	15.8 µM	44.2 µM	20.1 µM
CCCCCCCCCCCCCCCCCc1nccn1CCOCCO	13.2 µg/mL	11.9 µg/mL	11.4 µg/mL	11.7 µg/mL	11.7 µg/mL	11 µg/mL	10.8 µg/mL	11 µg/mL	12.2 µg/mL	11.6 µg/mL	6.5 µg/mL	4.93 µg/mL	5.65 µg/mL	6.1 µg/mL	6.19 µg/mL	4.82 µg/mL	5.67 µg/mL	5.27 µg/mL	6.36 µg/mL	5.68 µg/mL
CC(C)N1CCN(c2ccncc2S(=O)(=O)N2CCCCC2)CC1	> 100 µM	> 100 µM	> 100 µM	> 100 µM	> 100 µM	> 100 µM	> 100 µM	> 100 µM	> 100 µM	> 100 µM	–	–	–	–	–	–	–	–	–	–
CCCCN1CCCC[C@@H]1C(=O)N[C@H](C(=O)N(C)[C@H](C[C@@H](OC(C)=O)c1nc(C(=O)NC2CCC(C(=O)OC)CC2)cs1)C(C)C)C(C)C (stereo not given in full)	> 25 µM	> 25 µM	> 25 µM	> 25 µM	> 25 µM	> 25 µM	> 25 µM	8.06 µM	16.8 µM	> 25 µM	1.97 µM	0.242 µM	0.806 µM	1.4 µM	1.5 µM	6.35 µM	2.14 µM	1.01 µM	0.851 µM	7.06 µM
O=C(CC1(O)C(=O)N(Cc2ccccc2)c2ccc(Cl)cc21)c1ccc(C(=O)NCC2CCC3(CC2)OOC2(CCCCC2)OO3)cc1 (stereo not given)	0.537 µM	0.531 µM	66.2 µM	15 µM	0.367 µM	4.13 µM	> 21.1 µM	1.34 µM	2.43 µM	0.289 µM	0.209 µM	0.214 µM	1.81 µM	2.42 µM	0.192 µM	1.77 µM	3.48 µM	0.57 µM	0.573 µM	0.134 µM
O=C(CCl)NCCNc1nccc(Nc2ccc(S(=O)(=O)Nc3ccccn3)cc2)n1	10.5 µM	11.2 µM	5.61 µM	13.9 µM	11.7 µM	13.1 µM	42.8 µM	7.66 µM	4.38 µM	10 µM	2.3 µM	2.45 µM	1.78 µM	2.32 µM	3.25 µM	3.67 µM	4.67 µM	2.39 µM	1.62 µM	2.77 µM
